According to patent US20250270199A1, “THIAZOLE DERIVATIVES AND METHODS OF USING THE SAME” (Arkansas State University - Jonesboro, priority 2022, published 2025):
In brackets after ≈: the same amount, converted by molar mass. Several values for one entry are separate records, joined by “and”; a condition that tells them apart may be missing. Equal entries are not always repeated.

Legend:
[1] = system: S. aureus ATCC 700699 (Sa 99); assay: MIC, broth microdilution, Sa 99; assay type: cell-based; conditions: replicates from different days separated by comma; for MIC: Staphylococcus aureus, ATCC700699, Table 1, HT series, read-out: Minimum inhibitory concentration (MIC) Sa 99; for Minimum inhibitory concentration (MIC) Sa 99: Table 1, HT series
Method: (§1) The broth microdilution method was utilized to determine MIC values of novel thiazole derivatives against different clinically important Gram-positive bacteria according to the guidelines outlined by the Clinical and Laboratory Standards Institute (CLSI) as reported in our recent papers.^1-5 The starting concentration of compounds for MIC determination was 64 μg/mL serially diluted down the wells and the MIC values were recorded in duplicates in three independent experiments on different days.

[2] = system: S. aureus ATCC 25923 (Sa 23); assay: MIC, broth microdilution, Sa 23; assay type: cell-based; conditions: replicates from different days separated by comma; for MIC: Staphylococcus aureus, ATCC25923, Table 1, HT series, read-out: Minimum inhibitory concentration (MIC) Sa 23; for Minimum inhibitory concentration (MIC) Sa 23: Table 1, HT series
Method: as §1

[3] = system: Sa UAMS-1 MRSA ATCC 49230 (Sa UAMS); assay: MIC, broth microdilution, Sa UAMS; assay type: cell-based, S. aureus; conditions: Staphylococcus aureus; Table 1, HT series; read-out: Minimum inhibitory concentration (MIC) Sa UAMS
Method: as §1

[4] = system: S. aureus subsp. aureus Rosenbach ATCC 25904 (SA Newman); assay: MIC, broth microdilution, SA Newman; assay type: cell-based; conditions: Staphylococcus aureus; Table 1, HT series; read-out: Minimum inhibitory concentration (MIC) Sa Newman
Method: as §1

[5] = system: S. aureus LAC MRSA (Sa LAC); assay: MIC, broth microdilution, Sa LAC; assay type: cell-based; conditions: Staphylococcus aureus, Table 1, HT series, read-out: Minimum inhibitory concentration (MIC) Sa LAC
Method: as §1

[6] = system: S. aureus ATCC 33592 (Sa 92); assay: MIC, broth microdilution, Sa 92; assay type: cell-based; conditions: Staphylococcus aureus, ATCC33592; Table 1, HT series; read-out: Minimum inhibitory concentration (MIC) Sa 92
Method: as §1

[7] = system: S. aureus ATCC BAA-2312 (Sa 12); assay: MIC, broth microdilution, Sa 12; assay type: cell-based; conditions: Staphylococcus aureus, ATCCBAA2312; Table 1, HT series; read-out: Minimum inhibitory concentration (MIC) Sa 12
Method: as §1

[8] = system: E. faecalis ATCC 29212 (Efs 12); assay: MIC, broth microdilution, Efs 12; assay type: cell-based; conditions: replicates from different days separated by comma; for MIC: Enterococcus faecalis, ATCC29212, Table 1, HT series, read-out: Minimum inhibitory concentration (MIC) Efs 12; for Minimum inhibitory concentration (MIC) Efs 12: Table 1, HT series
Method: as §1

[9] = system: S. aureus ATCC 33591 (Sa 91); assay: MIC, broth microdilution, Sa 91; assay type: cell-based; conditions: Staphylococcus aureus, ATCC33591; Table 1, HT series; read-out: Minimum inhibitory concentration (MIC) Sa 91
Method: as §1

Row | Compound | MIC [1] [µg/mL] | Minimum inhibitory concentration (MIC) Sa 99 [1] | MIC [2] [µg/mL] | Minimum inhibitory concentration (MIC) Sa 23 [2] | MIC [3] [µg/mL] | MIC [4] [µg/mL] | MIC [5] [µg/mL] | MIC [6] [µg/mL] | MIC [7] [µg/mL] | MIC [8] [µg/mL] | Minimum inhibitory concentration (MIC) Efs 12 [8] | MIC [9] [µg/mL]
1 | Oc1ccc(-c2nc(-c3ccccc3)cs2)cc1O [Compound 2, 4-(4-phenylthiazol-2-yl)benzene-1,2-diol] | 32 (≈ 119 µM) | 16 µg/mL (≈ 59.4 µM) | 8 (≈ 29.7 µM) | 16 µg/mL (≈ 59.4 µM) | 32 (≈ 119 µM) | 32 (≈ 119 µM) | 32 (≈ 119 µM) | 16 (≈ 59.4 µM) | 32 (≈ 119 µM) | > 32 | >32, >32, >32 μg/mL | 16 (≈ 59.4 µM)
2 | Oc1ccc(-c2nc(-c3cccc(Cl)c3)cs2)cc1O [Compound 3, 4-(4-(3-chlorophenyl)thiazol-2-yl)benzene-1,2-diol] | 4 (≈ 13.2 µM) | 4, 4, 4 μg/mL | 2 (≈ 6.58 µM) | 2, 2, 2 μg/mL | 8 (≈ 26.3 µM) | 4 (≈ 13.2 µM) | 8 (≈ 26.3 µM) | 8 (≈ 26.3 µM) | 8 (≈ 26.3 µM) | 16 (≈ 52.7 µM) | 8 µg/mL and 16 µg/mL | 4 (≈ 13.2 µM)
3 | Oc1ccc(-c2nc(-c3ccc(F)cc3)cs2)cc1O [Compound 4, 4-(4-(4-fluorophenyl)thiazol-2-yl)benzene-1,2-diol] | – | 16 μg/mL (2×) and 4 μg/mL | 4 (≈ 13.9 µM) | 8 µg/mL (≈ 27.8 µM) | 16 (≈ 55.7 µM) | 8 (≈ 27.8 µM) | 16 (≈ 55.7 µM) | 16 (≈ 55.7 µM) | 16 (≈ 55.7 µM) | 32 (≈ 111 µM) | 32, 32, 32 μg/mL | 8 (≈ 27.8 µM)
4 | Oc1ccc(-c2nc(-c3ccc(Cl)cc3Cl)cs2)cc1O [Compound 6, 4-(4-(2,4-dichlorophenyl)thiazol-2-yl)benzene-1,2-diol] | 2 (≈ 5.91 µM) | 2, 2, 2 μg/mL | 2 (≈ 5.91 µM) | 2, 2, 2 μg/mL | 8 (≈ 23.7 µM) | 4 (≈ 11.8 µM) | 8 (≈ 23.7 µM) | 8 (≈ 23.7 µM) | 8 (≈ 23.7 µM) | – | 16 µg/mL and 2 µg/mL and 8 µg/mL | 4 (≈ 11.8 µM)
